#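 Method: 48-hour compound exposure of cells in 96-well plates, five concentrations, linear interpolation of endpoints. Abbreviation: GI50, concentration required for 50% inhibition of growth. At the TGI there is no net growth.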
# What was measured:
# Assay in all cases: NCI-60 cell line screen, 48 h
# [1] = test system: 786-0 renal
# [2] = test system: A498 renal
# [3] = test system: A549 NSCLC
# [4] = test system: ACHN renal
# [5] = test system: BT-549 breast
# [6] = test system: CAKI-1 renal
# [7] = test system: CCRF-CEM leukemia
# [8] = test system: COLO 205 colon
# [9] = test system: DU-145 prostate
# [10] = test system: EKVX NSCLC
# [11] = test system: HCC-2998 colon
# [12] = test system: HCT-116 colon
# [13] = test system: HCT-15 colon
# [14] = test system: HL-60(TB) leukemia
# [15] = test system: HOP-62 NSCLC
# [16] = test system: HOP-92 NSCLC
# [17] = test system: HS 578T breast
# [18] = test system: HT29 colon
# [19] = test system: IGROV1 ovarian
# [20] = test system: K-562 leukemia
# [21] = test system: KM12 colon
# [22] = test system: LOX IMVI melanoma
# [23] = test system: M14 melanoma
# [24] = test system: MALME-3M melanoma
# [25] = test system: MCF7 breast
# [26] = test system: MDA-MB-231 breast
# [27] = test system: MDA-MB-435
# [28] = test system: MOLT-4 leukemia
# [29] = test system: NCI-H226 lung
# [30] = test system: NCI-H23 lung
# [31] = test system: NCI-H460 lung
# [32] = test system: NCI-H522 lung
# [33] = test system: NCI/ADR-RES ovarian
# [34] = test system: OVCAR-3 ovarian
# [35] = test system: OVCAR-4 ovarian
# [36] = test system: OVCAR-5 ovarian
# [37] = test system: OVCAR-8 ovarian
# [38] = test system: PC-3 prostate
# [39] = test system: RPMI-8226 leukemia
# [40] = test system: RXF 393 renal
# [41] = test system: SF-268 CNS
# [42] = test system: SF-295 CNS
# [43] = test system: SF-539 CNS
# [44] = test system: SK-MEL-2 melanoma
# [45] = test system: SK-MEL-28 melanoma
# [46] = test system: SK-MEL-5 melanoma
# [47] = test system: SK-OV-3 ovarian
# [48] = test system: SN12C renal
# [49] = test system: SNB-19 CNS
# [50] = test system: SNB-75 CNS
# [51] = test system: SR leukemia
# [52] = test system: SW-620 colon
# [53] = test system: T-47D breast
# [54] = test system: TK-10 renal
# [55] = test system: U251 CNS
# [56] = test system: UACC-257 melanoma
# [57] = test system: UACC-62 melanoma
# [58] = test system: UO-31 renal
structure (smiles),measurement,setting,value
O=C(CNc1c(Cl)cccc1Cl)Nc1ccc(-c2nc3ccccc3s2)cc1,GI50,[1],1.78 µM
same,TGI,[1],3.76 µM
same,GI50,[2],8.93 µM
same,TGI,[2],23.4 µM
same,GI50,[3],5.83 µM
same,TGI,[3],26.6 µM
same,GI50,[4],1.97 µM
same,TGI,[4],3.93 µM
same,GI50,[5],1.72 µM
same,TGI,[5],4.64 µM
same,GI50,[6],2.26 µM
same,TGI,[6],5.79 µM
same,GI50,[7],0.485 µM
same,GI50,[8],2.33 µM
same,TGI,[8],4.81 µM
same,GI50,[9],3.41 µM
same,TGI,[9],10.7 µM
same,GI50,[10],11.2 µM
same,TGI,[10],28.2 µM
same,GI50,[11],2.11 µM
same,TGI,[11],4.29 µM
same,GI50,[12],1.98 µM
same,TGI,[12],4.93 µM
same,GI50,[13],1.78 µM
same,TGI,[13],5.28 µM
same,GI50,[14],2.37 µM
same,TGI,[14],7.5 µM
same,GI50,[15],6.8 µM
same,TGI,[15],21.3 µM
same,GI50,[16],1.66 µM
same,TGI,[16],4.45 µM
same,GI50,[17],5.11 µM
same,TGI,[17],67.8 µM
same,GI50,[18],2.16 µM
same,TGI,[18],4.76 µM
same,GI50,[19],2.3 µM
same,TGI,[19],5.85 µM
same,GI50,[20],1.24 µM
same,TGI,[20],> 33.9 µM
same,GI50,[21],2.62 µM
same,TGI,[21],6.94 µM
same,GI50,[22],1.39 µM
same,TGI,[22],2.88 µM
same,GI50,[23],2.05 µM
same,TGI,[23],5.52 µM
same,GI50,[24],1.85 µM
same,TGI,[24],3.75 µM
same,GI50,[25],0.0913 µM
same,TGI,[25],5.7 µM
same,GI50,[26],2.67 µM
same,TGI,[26],7.31 µM
same,GI50,[27],2.64 µM
same,TGI,[27],10.9 µM
same,GI50,[28],0.666 µM
same,TGI,[28],> 27.3 µM
same,GI50,[29],2.17 µM
same,TGI,[29],5.72 µM
same,GI50,[30],2.06 µM
same,TGI,[30],4.58 µM
same,GI50,[31],2.69 µM
same,TGI,[31],7.96 µM
same,GI50,[32],1.56 µM
same,TGI,[32],3.61 µM
same,GI50,[33],3.22 µM
same,TGI,[33],9.89 µM
same,GI50,[34],1.97 µM
same,TGI,[34],3.73 µM
same,GI50,[35],1.95 µM
same,TGI,[35],5.19 µM
same,GI50,[36],2.53 µM
same,TGI,[36],7.79 µM
same,GI50,[37],3.01 µM
same,TGI,[37],> 29.8 µM
same,GI50,[38],1.66 µM
same,TGI,[38],3.52 µM
same,GI50,[39],2.44 µM
same,TGI,[39],> 22.8 µM
same,GI50,[40],4.15 µM
same,TGI,[40],9.73 µM
same,GI50,[41],2.4 µM
same,TGI,[41],6.44 µM
same,GI50,[42],15.6 µM
same,TGI,[42],30.2 µM
same,GI50,[43],1.88 µM
same,TGI,[43],3.62 µM
same,GI50,[44],3.32 µM
same,TGI,[44],12.4 µM
same,GI50,[45],2.61 µM
same,TGI,[45],7.31 µM
same,GI50,[46],1.61 µM
same,TGI,[46],3.3 µM
same,GI50,[47],9.11 µM
same,TGI,[47],70.6 µM
same,GI50,[48],2.31 µM
same,TGI,[48],7.1 µM
same,GI50,[49],3.14 µM
same,TGI,[49],12.5 µM
same,GI50,[50],2.42 µM
same,TGI,[50],8.22 µM
same,GI50,[51],0.797 µM
same,TGI,[51],> 23.1 µM
same,GI50,[52],2.2 µM
same,TGI,[52],4.9 µM
same,GI50,[53],1.89 µM
same,TGI,[53],5.37 µM
same,GI50,[54],2.04 µM
same,TGI,[54],4.69 µM
same,GI50,[55],2.06 µM
same,TGI,[55],4.65 µM
same,GI50,[56],4.27 µM
same,TGI,[56],16.6 µM
same,GI50,[57],1.71 µM
same,TGI,[57],3.87 µM
same,GI50,[58],3.62 µM
same,TGI,[58],9.13 µM

# Source: PubChem BioAssay (NCI)
